Test system: cps promoter
Assay: cps G-R reporter bacteria imaging in vitro (GFP-to-RFP ratio)
Format: cell-based, E. coli
Settings: low-dose cephaloridine, cultured at 37° C.
Description: For high-resolution imaging, rph1 ilvG rfb-50 attL (Psyn135::mcherry <FRT>) attHKPR218 (cps G-R reporter strain), a genetically modified strain derived from MG1655 (genotype rph1 ilvG rfb-50), was generated. pPR218, integrated at the HK site, encodes Pcps::sfGFP and chloramphenicol resistance.
In vitro imaging: The cps G-R reporter strain was cultured in M9 minimal medium. Bacteria culture was harvested at an OD600 of 0.6. For bacteria imaging, 1 μL of the culture was loaded onto a 1% low-melt agarose pad made with M9 medium [PMID: 23680982].
MG1655, a human-derived commensal K12 strain, was treated with a low dose of cephaloridine at 37° C., which induced colanic acid production (FIG. 3A). […] To determine whether cephaloridine activates cps expression in a commensal bacterium in a mammalian host, MG1655 was engineered as shown in FIG. 3C to express GFP under the control of the cps promoter and to constitutively express RFP under a synthetic promoter syn135, resulting in the cps G-R reporter strain. […] The luminal content of mice ileum was harvested after 3 hours of cephaloridine administration and were imaged for fluorescence. […]

With `O=C(Cc1cccs1)N[C@@H]1C(=O)N2C(C(=O)[O-])=C(C[n+]3ccccc3)CS[C@H]12` [cephaloridine] the “increase in GFP-to-RFP intensity ratio” value was 20%.

Source: US20250295668A1, “METHODS FOR INDUCING COLANIC ACID BIOSYNTHESIS” (priority 2024, published 2025)
